Reference: patent publication US7879795B2, “Enhancement of tigecycline potency using efflux pump inhibitors” (Mpex Pharmaceuticals, Inc., priority 2004, dated 2011)

Experiments:
[1] = in vivo; cited from earlier work
[2] = system: P. aeruginosa, PAM1723, overexpressing the MexAB-OprM efflux pump; assay: Levofloxacin potentiation checkerboard assay (broth microdilution); format: cell-based; settings: in words
Experimental: Stock solution was stored at −80° C.
The checkerboard assay was performed in microtiter plates. […] EPIs were diluted in the y axis, each row containing an equal concentration of an EPI. The result of these manipulations was that each well of the microtiter plate contains a unique combination of concentrations of the two agents. The assay was performed in MHB with a final bacterial inoculum of 5×10^5 CFU/ml (from an early-log phase culture). Microtiter plates were incubated during 20 h at 35° C. and were read using a microtiterplate reader (Molecular Devices) at 650 nm as well as visual observation using a microtiter plate-reading mirror.

[3] = system: strain 29A2 of P. aeruginosa overexpressing MexAB-OprM efflux pump; assay: Neutropenic mice lung model of PA infection; format: in vivo; settings: levofloxacin 30 mg/kg SQ plus EPI IP
Experimental: Neutropenia was induced by cyclophosphamide 100 mg/kg IP on days 3 and 1 prior to infection. The strain 29A2 of P. aeruginosa overexpressing MexAB-OprM efflux pump was grown overnight in Mueller-Hinton Broth (MHB). The next day overnight culture was diluted in fresh MHB and was allowed to re-grow to ˜10^8 CFU/mL (OD600˜0.3). The culture was spun down, washed twice with phosphate buffered saline (PBS) and re-suspended in PBS to ˜4×10^7 CFU/mL. 50 μl of inoculum was used for intratracheal instillation of mice, which were anesthetized with sevoflourane/oxygen. […] Four mice from each treatment group were euthanized at various times after the start of treatment. The lungs were removed aseptically, homogenized in saline, and immediately plated to determine bacterial load (CFU/ml) in infected lungs. P. aeruginosa is plotted as a function of time in FIG. 20.

[4] = Acute toxicity, minimal lethal dose after IV bolus in mice; format: in vivo, mouse; settings: IV bolus into tail vein, lethal for at least one of three mice
Experimental: Acute toxicity was measured as minimal lethal dose (MLD). MLD is defined as a minimal concentration of a compound that has lethal effect for at least one mouse from the group of three mice after IV bolus injection into the mouse tail vein.

[5] = Serum levels of compound 3 after administration of acylated forms in rats; format: in vivo, rat; settings: compound 5 8.4 mg/kg injected, compound 43 10 mg/kg two-hour infusion
Experimental: Rats were injected with compound 5 (8.4 mg/kg) and serum levels of the parent compound 3 were evaluated after extraction. The serum levels as a function of time are depicted in FIG. 16.
Rats were infused for two hours with compound 43 at 10 mg/kg and serum levels of the parent compound 3 were evaluated after extraction. FIG. 17 depicts the serum levels of compound 3 as a function of time.

[6] = Stability in human kidney tissue preparations; format: in vitro ADME; settings: in words
Source text: The pattern of in vitro stability of compound 3 (stable in serum but unstable in tissues) observed in rodents was also reproduced using human kidney tissues or serum. FIG. 7 compares the in vitro stability of compounds 1 and 3 in human kidney tissue preparations.
FIG. 8 depicts formation of the metabolite, compound 67, in human kidney tissue. Concomitant with the disappearance of compound 3, generation of the expected metabolite of the presumed intralysosomal degradation, compound 67, was detected using human kidney.

[7] = In vitro stability in rat serum and tissue homogenates (LC/MS/MS); format: in vitro ADME; settings: rat kidney homogenates, as a function of time
Experimental: To test the stability of the compounds in vitro, samples were prepared and analyzed by LC/MS/MS according to the following procedure.
Homogenization: A chunk of fresh tissue was weighed and mixed with saline at 1:1 ratio (w/v) in a 12×75 mm polypropylene round bottom tube. The mixture was homogenized with a Polytron homogenizer (on ice, 3×10 seconds with 10 second intervals at the setting of 7).
Incubation and TCA-precipitation: An appropriate amount of a tissue homogenate was pre-warmed at 37° C. for 2 minutes in an Eppendorf tube. The compound to be tested was added to the tube to a final concentration of 2 μg/ml, mixed, and a 60 μl aliquot was immediately taken (as 0 hour sample) and mixed with 120 μl of 4% TCA (trichloroacetic acid) in an Eppendorf tube. The temperature of the tube containing the rest of the tissue sample was returned to 37° C. for incubation. Later, samples were taken as scheduled and mixed with TCA as described above. Plasma and lavage samples were directly incubated with the compounds without addition of saline and homogenization.
LC/MS/MS sample vial preparation: TCA-precipitated sample tubes were vortexed for 30 seconds, centrifuged in a microfuge at top speed (13.2 k rpm) for 5 minutes. The supernatant was collected. The pH was neutralized to about 3.5 with ammonium acetate buffer. The sample (45 μl) was transferred to a glass LC/MS/MS vial (Kimble, 11 mm, 1.5 ml) and 5 μl of an internal standard was added to a final concentration of 500 ng/ml. LC/MS/MS analysis was performed in Chemistry Department of San Diego State University.
LC/MS/MS protocol: Thermo-Finnigan TSQ Quantum triple sector mass spectrometer with electrospray (ESI) ionization was used to analyze the samples. The operation conditions were: Mobile phase of pH 3.00 water/formic acid: acetonitrile-methanol (45%:5%:50% by volume); Thermo-Keystone Betabasic C-18 column (2.1 mm×50 mm) operated at 0.100 mL/min.
Many proteases responsible for degrading EPI compounds are located in […]. Lysozymes typically have an acidic pH (about 4.8-5), whereas the pH in tissue homogenates that were prepared was higher (kidney, pH 6.8; liver, pH 6.6; and lung, pH 7.5). To test the effect of tissue homogenates closer to physiological conditions, the pH was lowered to about 6 by adding acetic acid to the tissue homogenates and compound stability was tested. FIG. 2 depicts the stability of compounds 1 and 3 at different pH. […] The pH-dependent degradation of compound 3 was especially evident in kidney homogenates.
FIG. 4 is a bar graph depicting the stability of compound 3 in the supernatant and pellet of kidney tissue homogenates.

[8] = Tissue levels in rat six-hour after 8.4 mg/kg IV bolus; format: in vivo; settings: in words
Experimental: Tissue levels of compounds 1, 2, 3 and 4 were evaluated in kidney, liver and lung six-hour after 8.4 mg/kg IV bolus administration. FIG. 13 depicts the levels as a function of time.
Compound 67, which is the expected metabolite of proteolytic intracellular degradation of compound 3, was detected in rat tissues after IV infusion, confirming the tissue-specific degradation of compound 3 (Tables 9A, B).

[9] = system: P. aeruginosa strain PAM1723 overexpressing MexAB-OprM efflux pump; assay: Neutropenic mice thigh model of PA infection; format: in vivo; settings: levofloxacin 30 mg/kg SQ, EPI 60 mg/kg IP, 2 hours post-infection
Experimental: Efficacy of the EPIs was evaluated in a Neutropenic Mice Thigh Model of P. aeruginosa Infection. Neutropenia was induced by cyclophosphamide 100 mg/kg IP on days 3 and 1 prior to infection. P. aeruginosa strain PAM1723 overexpressing MexAB-OprM efflux pump was grown overnight in Mueller-Hinton Broth (MHB). The next day, the overnight culture was diluted in fresh MHB and was allowed to re-grow to ˜10^8 CFU/mL (OD600˜0.3). The culture was spun down, washed twice with phosphate buffered saline (PBS) and re-suspend in PBS to ˜4×10^6 CFU/mL. Next, this culture was mixed 1:1 with 14% hog-gastric mucin in PBS to give a final inoculum of 2×10^6 CFU/mL. Infection was initiated with injection of 0.1 mL of inoculum (˜2×10^5 CFU/thigh) directly into both thighs of each mouse. Two mice from each treatment group were euthanized at various times after the start of treatment. The thighs were removed aseptically, homogenized in saline, and immediately plated to determine bacterial load (CFU/ml). Treatment was initiated 2 hours post infection.

PAM1723 = settings: summary of Table 4; in words
Experimental: Stability in rat and human serum was also evaluated using a bioassay. 320 μg/ml of the test compound was treated with 50% serum for 4 hours.
Bioassays as described in Example 62 and Example 65 were used to evaluate the stability of various compounds in serum and rabbit kidney homogenates.

SMILES	in vitro levofloxacin potentiating activity [2]	MLD (minimal lethal dose) [4] [mg/kg]	metabolism in serum to produce compound 3 [5]	other results
N=C(N)c1ccc(OCCCCCOc2ccc(C(=N)N)cc2)cc1 [pentamidine]	–	–	–	incidence of kidney toxicity [1]: above 75%
NCCC[C@H](NC(=O)C[C@H](N)C(=O)O)C(=O)N[C@H](CCc1ccccc1)C(=O)Nc1cnc2ccccc2c1 [Compound 5, 2-(S)-Amino-N-{4-amino-1-(S)-[3-phenyl-1-(R)-(quinolin-3-ylcarbamoyl)-propylcarbamoyl]-butyl}-succinamic acid]	devoid of levofloxacin potentiating activity	75	readily metabolized	bacterial load in infected lungs, EPI with levofloxacin [3]: efficacious
NC(CCc1ccccc1)C(=O)Nc1cnc2ccccc2c1 (stereo in doubt) [Compound 67, 2-(S)-Amino-4-phenyl-N-quinolin-3-yl-butyramide]	–	–	–	generation of metabolite 67 from compound 3 in human kidney [6]: detected; level of degradation product 67 formed from compound 3 [7]: increased; detection of metabolite 67 in rat tissues after IV administration of compound 3 [8]: detected
N[C@@H](CC(=O)O)C(=O)NCCC[C@H](NC(=O)[C@@H](N)CC(=O)O)C(=O)N[C@H](CCc1ccccc1)C(=O)Nc1cnc2ccccc2c1 [Compound 43, 3-Amino-(S)—N-{4-(S)-(2-(3)-(S)-amino-3-carboxy-propionylamino)-4-[3-phenyl-1-(R)-(quinolin-3-ylcarbamoyl)-propylcarbamoyl]-butyl}-succinamic acid]	did not have in vitro levofloxacin potentiating activity	150	readily metabolized	bacterial load in thighs, EPI with levofloxacin versus levofloxacin alone [9]: potentiated levofloxacin in vivo
N[C@@H](CC(=O)O)C(=O)NCCC[C@H](N)C(=O)N[C@H](CCc1ccccc1)C(=O)Nc1cnc2ccccc2c1 [Compound 34, 3-(S)-Amino-N-{4-(S)-amino-4-[3-phenyl-1-(R)-(quinolin-3-ylcarbamoyl)-propylcarbamoyl]-butyl}-succinamic acid]	–	50	–	stability in rat serum (PAM1723): unstable in rat serum
